From patent US20090023794A1, “Use of Sumoylation Inhibitors for the Treatment of Neurodegenerative Disease” (Caritas St. Elizabeth Medical Center of Boston, Inc., priority 2005, published 2009)

Columns and labels:
[1] = test system: tyrosine hydroxylase expression in CHP-212 cells; experiment: Restoration of tyrosine hydroxylase expression by HDAC inhibitors in CHP-212 cells transfected with DJ-1 siRNA (western blot); format: cell-based, human; details: for reversal of tyrosine hydroxylase inhibition caused by DJ-1 inactivation (in words): CHP-212 cells transfected with DJ-1 siRNA/RNAi
Source text: Various acetylated histone species from CHP-212 cells transfected with control or DJ-1 RNAi for 4 days were immunoprecipitated with specific antibodies, and amplified with primers specifically for the human tyrosine hydroxylase promoter using semi-quantitative PCR. Reactions were stopped at indicated PCR cycles for gel analysis. Input: 0.5% of input DNA before IP. The inhibition of endogenous tyrosine hydroxylase and DJ-1 by the DJ-1-specific siRNA for the ChIP assays was confirmed by Western blots. […] after the transfection of control (CTR) or DJ-1 RNAi constructs, CHP-212 cells were treated with increasing amount of sodium butyrate for additional 88 hours before harvesting, with 2 changes of fresh medium containing sodium butyrate during the course of the experiment. […] The protein levels of TH, DJ-1 and β-actin were determined by western blotting.
To validate the role of histone acetylation in DJ-1-mediated regulation of the human tyrosine hydroxylase promoter, CHP-212 cells were transfected with control or DJ-1-specific siRNA. ChIP assays were performed with antibodies that specifically recognize acetylated histones, and the human tyrosine hydroxylase promoter sequences were amplified using semi-quantitative PCR. Consistent with the concurrent inhibition of the tyrosine hydroxylase protein expression, DJ-1 inactivation caused a decrease in the amount of tyrosine hydroxylase promoter-associated acetylated histones, indicating transcriptional silencing (FIG. 6A). Since DJ-1 acted as a transcriptional co-activator eventually promoting histone acetylation, it was likely that chemical inhibitors of HDAC would reverse the effects of DJ-1 inactivation. Therefore, CHP-212 cells were pre-transfected with control or DJ-1-specific siRNA, and the cells were treated with increasing amounts of the HDAC inhibitor sodium butyrate. Sodium butyrate restored tyrosine hydroxylase expression (to 88% of the levels in the control at 0.2 mM) even in the presence of DJ-1 siRNA (FIG. 6B). […]

[2] = test system: histone acetylation; experiment: Histone acetylation in CHP-212 cells by western blotting; format: cell-based, human; details: data not shown

SMILES	tyrosine hydroxylase expression restored, relative to the levels in the control ([1]; 0.2 mM, CHP-212 cells in the presence of DJ-1 siRNA, western blot)	reversal of tyrosine hydroxylase inhibition caused by DJ-1 inactivation (in words) [1]	histone acetylation (in words) [2]
CCCC(=O)[O-].[Na+] [sodium butyrate]	88 % of the levels in the control	restoration of tyrosine hydroxylase expression	increased histone acetylation
CC(/C=C/C(=O)NO)=C\[C@@H](C)C(=O)c1ccc(N(C)C)cc1 [trichostatin A]	–	similarly reversed the tyrosine hydroxylase inhibition	–
